Data from patent US12521448B2, “Preparation of solid cyclodextrin complexes for ophthalmic active pharmaceutical ingredient delivery” (Oculis Operations Sarl, priority 2016, dated 2026).

Experiments:
[1] = Degradation on heating of drug suspensions in aqueous γ-cyclodextrin solutions (autoclave vs 95° C.); assay type: physicochemical; conditions: autoclaving with γ-cyclodextrin
Excerpt: Diclofenac is suspended in aqueous solutions containing from 1% (w/v) to 15% (w/v) γ-cyclodextrin.

[2] = Dehydration of dexamethasone to 16,17-unsaturated dexamethasone and dexamethasone enol aldehydes during preparation/autoclaving of eye drops; assay type: physicochemical; conditions: aqueous eye drops
Protocol: The dehydration of dexamethasone during preparation of the aqueous dexamethasone eye drops described in Example 1 (formulations F1, F2, F3, F4, F5 and F6) is determined by quantitative determination of 16,17-unsaturated dexamethasone and the dexamethasone enol aldehydes in the eye drops after manufacturing. Formulations F12, F13 and F14 are prepared as described in F1, that is by dissolving or suspending the ingredients, including dexamethasone, in pure water and autoclaving the mixture in sealed vial at 121° C. for 20 minutes. The substantially clear aqueous vials are removed from the autoclave and become cloudy upon cooling at ambient conditions. […] F13 comprises dexamethasone and γ-cyclodextrin suspended in pure water. F14 comprises dexamethasone suspended in pure water. The effect of excipients and preparation methods on the formation of 16,17-unsaturated dexamethasone and the dexamethasone enol aldehydes is presented as the fraction (in %) of dexamethasone degraded to form 16,17-unsaturated dexamethasone and the dexamethasone enol aldehydes.
The amount of 16,17-unsaturated dexamethasone and dexamethasone enol aldehydes formed, presented as the fraction (in %) of dexamethasone degraded to form 16,17-unsaturated dexamethasone and dexamethasone enol aldehydes, in aqueous eye drops after no autoclaving (i.e., heating to 121° C. for 20 minutes) once, twice and three times is shown in Table 3. […]

| effect of γ-cyclodextrin on aqueous diclofenac solutions during autoclaving [1] | fraction of dexamethasone degraded to 16,17-unsaturated dexamethasone and dexamethasone enol aldehydes ([2]; pH 2.5, 0 autoclaving cycles (121° C., 20 min)) [%] | fraction of dexamethasone degraded to 16,17-unsaturated dexamethasone and dexamethasone enol aldehydes ([2]; pH 2.5, 1 autoclaving cycle (121° C., 20 min)) [%] | fraction of dexamethasone degraded to 16,17-unsaturated dexamethasone and dexamethasone enol aldehydes ([2]; pH 2.5, 2 autoclaving cycles (121° C., 20 min)) [%] | fraction of dexamethasone degraded to 16,17-unsaturated dexamethasone and dexamethasone enol aldehydes ([2]; pH 2.5, 3 autoclaving cycles (121° C., 20 min)) [%] | fraction of dexamethasone degraded to 16,17-unsaturated dexamethasone and dexamethasone enol aldehydes ([2]; pH 4.0, 0 autoclaving cycles (121° C., 20 min)) [%] | fraction of dexamethasone degraded to 16,17-unsaturated dexamethasone and dexamethasone enol aldehydes ([2]; pH 4.0, 1 autoclaving cycle (121° C., 20 min)) [%] | fraction of dexamethasone degraded to 16,17-unsaturated dexamethasone and dexamethasone enol aldehydes ([2]; pH 4.0, 2 autoclaving cycles (121° C., 20 min)) [%] | fraction of dexamethasone degraded to 16,17-unsaturated dexamethasone and dexamethasone enol aldehydes ([2]; pH 4.0, 3 autoclaving cycles (121° C., 20 min)) [%] | fraction of dexamethasone degraded to 16,17-unsaturated dexamethasone and dexamethasone enol aldehydes ([2]; pH 5.5, 0 autoclaving cycles (121° C., 20 min)) [%] | fraction of dexamethasone degraded to 16,17-unsaturated dexamethasone and dexamethasone enol aldehydes ([2]; pH 5.5, 1 autoclaving cycle (121° C., 20 min)) [%] | fraction of dexamethasone degraded to 16,17-unsaturated dexamethasone and dexamethasone enol aldehydes ([2]; pH 5.5, 2 autoclaving cycles (121° C., 20 min)) [%] | fraction of dexamethasone degraded to 16,17-unsaturated dexamethasone and dexamethasone enol aldehydes ([2]; pH 5.5, 3 autoclaving cycles (121° C., 20 min)) [%] | fraction of dexamethasone degraded to 16,17-unsaturated dexamethasone and dexamethasone enol aldehydes ([2]; pH 7.0, 0 autoclaving cycles (121° C., 20 min)) [%] | fraction of dexamethasone degraded to 16,17-unsaturated dexamethasone and dexamethasone enol aldehydes ([2]; pH 7.0, 1 autoclaving cycle (121° C., 20 min)) [%] | fraction of dexamethasone degraded to 16,17-unsaturated dexamethasone and dexamethasone enol aldehydes ([2]; pH 7.0, 2 autoclaving cycles (121° C., 20 min)) [%] | fraction of dexamethasone degraded to 16,17-unsaturated dexamethasone and dexamethasone enol aldehydes ([2]; pH 7.0, 3 autoclaving cycles (121° C., 20 min)) [%] | Structure (SMILES) |
| --- | --- | --- | --- | --- | --- | --- | --- | --- | --- | --- | --- | --- | --- | --- | --- | --- | --- |
| intense coloring | – | – | – | – | – | – | – | – | – | – | – | – | – | – | – | – | O=C(O)Cc1ccccc1Nc1c(Cl)cccc1Cl [Diclofenac, diclofenac] |
| – | 0.08 | 1.06 | 2.29 | 3.12 | 0.08 | 1.14 | 2.19 | 3.03 | 0.08 | 1.22 | 2.27 | 3.46 | 0.08 | 0.86 | 1.64 | 2.57 | C[C@@H]1C[C@H]2[C@@H]3CCC4=CC(=O)C=C[C@]4(C)[C@@]3(F)[C@@H](O)C[C@]2(C)[C@@]1(O)C(=O)CO [dexamethasone] |
